From ChEMBL document CHEMBL1147799, “An integrated in silico 3D model-driven discovery of a novel, potent, and selective amidosulfonamide 5-HT1A agonist (PRX-00023) for the treatment of anxiety and depression” (J Med Chem, 2006)
The source made the active and inactive calls. The rule behind the calls is not given here.

Legend:
[1] = Half life in Sprague-Dawley rat at 3 mg/kg, po; format: ADME, organism-based; design: dose 3 mg/kg, route oral; settings: in vivo
Nociceptin receptor = Nociceptin receptor (Homo sapiens, UniProt P41146); experiment: Binding affinity to orphanin receptor by radioligand binding assay
Sequence of Nociceptin receptor (P41146 whole entry): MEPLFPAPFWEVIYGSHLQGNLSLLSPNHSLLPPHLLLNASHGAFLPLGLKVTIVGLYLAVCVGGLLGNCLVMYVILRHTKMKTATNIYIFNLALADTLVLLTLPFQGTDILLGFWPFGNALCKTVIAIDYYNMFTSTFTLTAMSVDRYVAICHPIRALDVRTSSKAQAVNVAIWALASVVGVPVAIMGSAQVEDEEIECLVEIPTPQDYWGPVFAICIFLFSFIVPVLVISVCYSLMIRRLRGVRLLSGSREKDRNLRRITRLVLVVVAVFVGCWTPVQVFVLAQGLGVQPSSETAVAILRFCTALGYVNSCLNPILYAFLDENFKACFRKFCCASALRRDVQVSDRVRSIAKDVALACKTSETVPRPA

Mus musculus = experiment: Decrease in stress-induced hyperthermia in 129S6/SvEvTac mouse at 20 mg/kg, po; format: functional, organism-based; design: dose 20 mg/kg
[2] = Cmax in Sprague-Dawley rat at 3 mg/kg, po; format: ADME, organism-based; design: dose 3 mg/kg, route oral; settings: in vivo
[3] = biological target: T1, 5-hydroxytryptamine receptor 1A (Homo sapiens, UniProt P08908); experiment: Displacement of [3H]8-OH-DPAT from human 5HT1A receptor in HEK293 cells
T1 sequence (P08908 whole entry): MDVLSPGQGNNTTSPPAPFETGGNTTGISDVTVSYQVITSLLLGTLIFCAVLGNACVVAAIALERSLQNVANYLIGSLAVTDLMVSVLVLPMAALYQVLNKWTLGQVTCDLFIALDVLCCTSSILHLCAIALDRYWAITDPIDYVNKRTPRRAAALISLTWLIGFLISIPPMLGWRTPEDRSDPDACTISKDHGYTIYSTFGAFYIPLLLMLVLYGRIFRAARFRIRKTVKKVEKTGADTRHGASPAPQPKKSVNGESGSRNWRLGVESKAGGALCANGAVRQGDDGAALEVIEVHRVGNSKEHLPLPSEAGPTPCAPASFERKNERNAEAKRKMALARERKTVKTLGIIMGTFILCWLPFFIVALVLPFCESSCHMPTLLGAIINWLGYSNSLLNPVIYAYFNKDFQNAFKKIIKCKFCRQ

[4] = biological target: GABA-A receptor; anion channel; experiment: Binding affinity to GABA receptor by radioligand binding assay; format: protein-complex assay
[5] = Binding affinity to chloride channel by radioligand binding assay
[6] = Half life in human liver S9 fraction at 5 uM; format: ADME
[7] = biological target: 5-hydroxytryptamine receptor 2A (Homo sapiens, UniProt P28223)
Sequence of 5-hydroxytryptamine receptor 2A (P28223 whole entry): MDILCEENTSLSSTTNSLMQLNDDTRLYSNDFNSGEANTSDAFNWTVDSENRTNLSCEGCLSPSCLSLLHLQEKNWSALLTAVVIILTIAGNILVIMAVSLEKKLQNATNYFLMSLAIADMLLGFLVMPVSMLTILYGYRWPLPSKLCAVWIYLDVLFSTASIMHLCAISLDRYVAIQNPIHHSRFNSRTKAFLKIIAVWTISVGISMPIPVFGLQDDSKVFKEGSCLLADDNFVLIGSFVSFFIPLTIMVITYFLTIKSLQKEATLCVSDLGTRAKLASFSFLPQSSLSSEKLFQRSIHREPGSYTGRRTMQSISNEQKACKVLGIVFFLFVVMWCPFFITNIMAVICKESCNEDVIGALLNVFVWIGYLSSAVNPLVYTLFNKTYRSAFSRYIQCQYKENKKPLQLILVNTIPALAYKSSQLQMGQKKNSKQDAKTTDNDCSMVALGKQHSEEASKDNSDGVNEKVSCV
Description: Binding affinity to 5HT2A receptor by radioligand binding assay

[8] = Terminal half life in human; format: ADME, organism-based; settings: in vivo
[9] = Binding affinity to melanocortin receptor by radioligand binding assay
D(2) dopamine receptor = D(2) dopamine receptor (Homo sapiens, UniProt P14416); experiment: Binding affinity to D2 receptor by radioligand binding assay
Sequence of D(2) dopamine receptor (P14416 whole entry): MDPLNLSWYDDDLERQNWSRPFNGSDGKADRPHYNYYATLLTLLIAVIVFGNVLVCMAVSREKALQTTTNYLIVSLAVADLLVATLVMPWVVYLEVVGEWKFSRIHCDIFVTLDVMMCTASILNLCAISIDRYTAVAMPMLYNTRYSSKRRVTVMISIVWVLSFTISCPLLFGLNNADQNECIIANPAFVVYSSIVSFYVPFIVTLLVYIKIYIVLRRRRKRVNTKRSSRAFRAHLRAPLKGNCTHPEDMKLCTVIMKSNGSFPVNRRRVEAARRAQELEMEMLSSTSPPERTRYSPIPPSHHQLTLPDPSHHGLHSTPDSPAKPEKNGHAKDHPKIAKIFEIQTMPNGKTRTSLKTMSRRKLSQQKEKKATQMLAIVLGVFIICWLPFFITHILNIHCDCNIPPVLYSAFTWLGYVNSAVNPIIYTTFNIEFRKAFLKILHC

[10] = biological target: T2, Voltage-gated inwardly rectifying potassium channel KCNH2 (Homo sapiens, UniProt Q12809); experiment: Binding affinity to potassium channel by radioligand binding assay
T2 sequence (Q12809 whole entry): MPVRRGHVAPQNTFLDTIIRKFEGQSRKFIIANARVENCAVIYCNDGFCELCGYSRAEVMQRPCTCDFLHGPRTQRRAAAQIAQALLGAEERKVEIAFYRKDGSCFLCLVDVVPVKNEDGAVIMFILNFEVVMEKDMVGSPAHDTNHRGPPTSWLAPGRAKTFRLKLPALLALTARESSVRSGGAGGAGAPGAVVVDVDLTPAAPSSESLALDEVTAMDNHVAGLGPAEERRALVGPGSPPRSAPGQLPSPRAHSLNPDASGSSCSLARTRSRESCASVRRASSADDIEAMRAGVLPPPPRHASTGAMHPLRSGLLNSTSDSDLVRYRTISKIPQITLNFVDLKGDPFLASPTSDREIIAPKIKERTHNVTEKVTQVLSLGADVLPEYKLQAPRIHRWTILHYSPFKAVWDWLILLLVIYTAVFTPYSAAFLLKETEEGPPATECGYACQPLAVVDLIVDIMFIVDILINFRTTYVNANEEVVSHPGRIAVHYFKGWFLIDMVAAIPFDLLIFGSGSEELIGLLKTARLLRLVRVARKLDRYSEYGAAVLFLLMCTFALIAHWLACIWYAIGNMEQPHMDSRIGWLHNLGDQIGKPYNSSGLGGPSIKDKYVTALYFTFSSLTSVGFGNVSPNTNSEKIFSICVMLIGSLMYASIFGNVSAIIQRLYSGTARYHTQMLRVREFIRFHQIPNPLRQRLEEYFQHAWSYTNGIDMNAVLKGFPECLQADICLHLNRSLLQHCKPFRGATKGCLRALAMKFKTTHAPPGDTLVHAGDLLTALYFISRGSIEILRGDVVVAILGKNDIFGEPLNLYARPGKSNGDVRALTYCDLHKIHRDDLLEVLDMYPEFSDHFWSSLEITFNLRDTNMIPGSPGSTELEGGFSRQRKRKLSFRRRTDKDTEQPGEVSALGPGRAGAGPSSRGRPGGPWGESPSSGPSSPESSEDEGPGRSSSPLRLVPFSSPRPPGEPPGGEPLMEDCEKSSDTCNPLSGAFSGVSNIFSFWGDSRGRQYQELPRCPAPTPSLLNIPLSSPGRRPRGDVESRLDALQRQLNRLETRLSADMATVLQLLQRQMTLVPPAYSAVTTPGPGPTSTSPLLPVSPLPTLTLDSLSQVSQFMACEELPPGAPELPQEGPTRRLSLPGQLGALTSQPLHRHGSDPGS

[11] = Toxicity in po dosed Beagle dog; format: organism-based, Canis lupus familiaris; settings: in vivo
[12] = biological target: Endothelin receptor, ET-A/ET-B (Homo sapiens, UniProt P24530+P25101); experiment: Binding affinity to endothelin receptor by radioligand binding assay; format: protein assay
Angiotensin II receptor = Angiotensin II receptor (Homo sapiens, UniProt P30556+P50052); experiment: Binding affinity to angiotensin2 receptor by radioligand binding assay; format: protein assay
[13] = Half life in human liver microsome at 5 uM; format: ADME; settings: liver microsomes
[14] = Protein binding in human serum at 2 uM; format: ADME, organism-based; settings: read-out: PPB (converted)
[15] = biological target: 5-hydroxytryptamine receptor 7 (Homo sapiens, UniProt P34969)
Sequence of 5-hydroxytryptamine receptor 7 (P34969 whole entry): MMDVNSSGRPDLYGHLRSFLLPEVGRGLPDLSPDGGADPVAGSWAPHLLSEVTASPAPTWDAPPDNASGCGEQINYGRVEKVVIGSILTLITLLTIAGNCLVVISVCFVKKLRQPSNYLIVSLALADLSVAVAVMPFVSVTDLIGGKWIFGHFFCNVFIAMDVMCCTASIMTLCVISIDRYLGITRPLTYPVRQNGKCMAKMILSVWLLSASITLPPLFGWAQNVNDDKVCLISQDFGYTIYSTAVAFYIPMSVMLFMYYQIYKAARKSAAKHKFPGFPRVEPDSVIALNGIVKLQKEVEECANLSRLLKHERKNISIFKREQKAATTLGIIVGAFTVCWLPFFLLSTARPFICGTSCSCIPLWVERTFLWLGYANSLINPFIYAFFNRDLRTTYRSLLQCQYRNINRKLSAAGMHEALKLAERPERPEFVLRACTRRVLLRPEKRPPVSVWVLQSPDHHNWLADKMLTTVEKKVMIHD
Description: Binding affinity to 5HT7 receptor by radioligand binding assay

[16] = biological target: 5-hydroxytryptamine receptor 2C (Homo sapiens, UniProt P28335); experiment: Binding affinity to human 5HT2C receptor by radioligand binding assay
Sequence of 5-hydroxytryptamine receptor 2C (P28335 whole entry): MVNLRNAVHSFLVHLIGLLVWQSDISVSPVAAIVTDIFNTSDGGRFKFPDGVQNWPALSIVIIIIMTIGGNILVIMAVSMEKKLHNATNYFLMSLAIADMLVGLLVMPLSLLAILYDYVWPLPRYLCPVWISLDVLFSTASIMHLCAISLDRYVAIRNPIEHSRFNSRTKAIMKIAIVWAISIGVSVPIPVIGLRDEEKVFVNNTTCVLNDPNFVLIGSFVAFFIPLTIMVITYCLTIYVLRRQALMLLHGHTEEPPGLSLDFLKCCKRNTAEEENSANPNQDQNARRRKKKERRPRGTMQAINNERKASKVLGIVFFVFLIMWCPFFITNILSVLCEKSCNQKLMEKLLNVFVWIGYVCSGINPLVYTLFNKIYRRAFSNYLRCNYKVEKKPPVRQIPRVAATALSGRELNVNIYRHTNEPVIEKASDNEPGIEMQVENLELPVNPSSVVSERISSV

hERG (KCNH2) = hERG (KCNH2) (Homo sapiens, UniProt Q12809); experiment: Inhibition of hERG potassium channel in HEK293 cells by patch clamp assay at 1 uM; settings: HEK293 cells that express hERG
[17] = biological target: Sodium-dependent dopamine transporter (Homo sapiens, UniProt Q01959); experiment: Binding affinity to dopamine transporter by radioligand binding assay
Sequence of Sodium-dependent dopamine transporter (Q01959 whole entry): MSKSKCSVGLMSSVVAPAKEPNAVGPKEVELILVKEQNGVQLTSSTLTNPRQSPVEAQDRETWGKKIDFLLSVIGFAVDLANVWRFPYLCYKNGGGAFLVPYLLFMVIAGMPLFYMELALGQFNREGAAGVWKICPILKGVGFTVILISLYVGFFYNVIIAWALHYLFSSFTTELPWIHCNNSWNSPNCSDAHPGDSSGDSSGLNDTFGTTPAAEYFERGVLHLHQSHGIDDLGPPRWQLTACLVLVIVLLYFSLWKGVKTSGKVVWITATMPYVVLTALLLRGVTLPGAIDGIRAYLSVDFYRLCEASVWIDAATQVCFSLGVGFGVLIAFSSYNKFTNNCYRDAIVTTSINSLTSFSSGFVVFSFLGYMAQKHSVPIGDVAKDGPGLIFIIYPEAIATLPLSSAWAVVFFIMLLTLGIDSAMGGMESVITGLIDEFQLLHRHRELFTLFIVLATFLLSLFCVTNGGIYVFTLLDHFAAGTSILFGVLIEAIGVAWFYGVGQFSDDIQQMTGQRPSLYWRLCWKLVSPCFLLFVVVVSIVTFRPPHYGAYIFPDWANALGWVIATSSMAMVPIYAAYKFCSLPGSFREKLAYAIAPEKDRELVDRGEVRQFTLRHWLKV

[18] = Binding affinity to neurotensin receptor by radioligand binding assay
[19] = biological target: 5-hydroxytryptamine receptor 1B (Rattus norvegicus, UniProt P28564); experiment: Binding affinity to 5HT1B receptor in rat cerebral cortex by radioligand binding assay; format: tissue-based
Sequence of 5-hydroxytryptamine receptor 1B (P28564 whole entry): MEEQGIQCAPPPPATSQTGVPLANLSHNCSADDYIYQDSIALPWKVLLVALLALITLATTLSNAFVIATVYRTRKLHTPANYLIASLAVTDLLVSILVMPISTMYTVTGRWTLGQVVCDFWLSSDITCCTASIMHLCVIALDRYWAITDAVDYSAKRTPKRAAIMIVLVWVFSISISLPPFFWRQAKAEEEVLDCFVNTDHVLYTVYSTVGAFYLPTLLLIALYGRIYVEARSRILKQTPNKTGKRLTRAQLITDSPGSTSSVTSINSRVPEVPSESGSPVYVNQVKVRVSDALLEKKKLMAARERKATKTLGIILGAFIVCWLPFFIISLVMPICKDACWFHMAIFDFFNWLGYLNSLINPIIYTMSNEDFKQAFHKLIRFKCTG

[20] = Binding affinity to bradykinin receptor by radioligand binding assay
[21] = biological target: Sodium-dependent noradrenaline transporter (Homo sapiens, UniProt P23975); experiment: Binding affinity to norepinephrine transporter by radioligand binding assay
Sequence of Sodium-dependent noradrenaline transporter (P23975 whole entry): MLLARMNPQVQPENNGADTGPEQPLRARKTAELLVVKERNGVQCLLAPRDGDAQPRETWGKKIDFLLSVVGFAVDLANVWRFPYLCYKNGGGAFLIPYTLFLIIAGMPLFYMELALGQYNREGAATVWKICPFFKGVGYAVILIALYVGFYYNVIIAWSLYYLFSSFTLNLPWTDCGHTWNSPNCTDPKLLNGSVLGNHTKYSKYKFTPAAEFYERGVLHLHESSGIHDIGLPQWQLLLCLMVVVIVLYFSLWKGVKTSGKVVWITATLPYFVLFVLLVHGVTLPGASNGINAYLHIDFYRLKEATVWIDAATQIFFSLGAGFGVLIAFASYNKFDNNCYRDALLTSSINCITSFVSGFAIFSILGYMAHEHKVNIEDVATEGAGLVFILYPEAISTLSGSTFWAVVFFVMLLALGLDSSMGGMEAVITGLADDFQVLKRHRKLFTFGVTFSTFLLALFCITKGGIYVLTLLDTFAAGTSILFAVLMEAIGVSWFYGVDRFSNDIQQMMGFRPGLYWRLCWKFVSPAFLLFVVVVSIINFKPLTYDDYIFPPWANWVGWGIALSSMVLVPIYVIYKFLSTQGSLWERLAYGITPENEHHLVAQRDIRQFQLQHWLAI

Cytochrome P450 2C9 = Cytochrome P450 2C9 (Homo sapiens, UniProt P11712); experiment: Inhibition of human recombinant cytochrome P450 2C9; format: ADME; settings: recombinant enzyme
[22] = Binding affinity to neuropeptide receptor by radioligand binding assay
Cytochrome P450 1A2 = Cytochrome P450 1A2 (Homo sapiens, UniProt P05177); experiment: Inhibition of human recombinant cytochrome P450 1A2; format: ADME; settings: recombinant enzyme
[23] = biological target: Muscarinic acetylcholine receptor; experiment: Binding affinity to muscarinic receptor by radioligand binding assay; format: protein assay
[24] = Binding affinity to adrenergic alpha receptor by radioligand binding assay
[25] = biological target: 5-hydroxytryptamine receptor 6 (Homo sapiens, UniProt P50406); experiment: Binding affinity to human 5HT6 receptor by radioligand binding assay
[26] = biological target: T1, 5-hydroxytryptamine receptor 1A; experiment: Activity against 5HT1A receptor by Gi-[35S]GTP-gamma-S binding assay; format: functional
Cytochrome P450 2C19 = Cytochrome P450 2C19 (Homo sapiens, UniProt P33261); experiment: Inhibition of human recombinant cytochrome P450 2C19; format: ADME; settings: recombinant enzyme
[27] = biological target: T2, Voltage-gated inwardly rectifying potassium channel KCNH2; experiment: Inhibition of hERG potassium channel in HEK293 cells by patch clamp assay
[28] = Binding affinity to sodium channel by radioligand binding assay
Somatostatin receptor = experiment: Binding affinity to somatostatin receptor by radioligand binding assay; format: protein assay
Translocator protein = Translocator protein (Homo sapiens, UniProt P30536); experiment: Binding affinity to benzodiazepine receptor by radioligand binding assay
Adrenergic receptor beta = Adrenergic receptor beta (Homo sapiens, UniProt P08588+P07550+P13945); experiment: Binding affinity to beta adrenergic receptor by radioligand binding assay; format: protein assay
[29] = Binding affinity to histamine receptor by radioligand binding assay
Homo sapiens = organism: Homo sapiens; experiment: Transient increase in prolactin level in human serum at greater than 30 mg; format: functional, organism-based
[30] = Binding affinity to vasopressin receptor by radioligand binding assay
[31] = biological target: 5-hydroxytryptamine receptor 2B (Homo sapiens, UniProt P41595); experiment: Binding affinity to 5HT2B receptor by radioligand binding assay
[32] = Ratio of drug level in brain against serum in Sprague-Dawley rat at 3 mg/kg, po or 1 mg/kg, iv after 1 hr; format: ADME, organism-based; settings: read-out: BBR
Cholecystokinin receptor = Cholecystokinin receptor (Homo sapiens, UniProt P32239+P32238); experiment: Binding affinity to cholecystokinin receptor by radioligand binding assay; format: protein assay
[33] = Oral bioavailability in Sprague-Dawley rat at 3 mg/kg, po and 1 mg/kg, iv; format: ADME, organism-based; settings: in vivo
[34] = Binding affinity to neurokinin receptor by radioligand binding assay
[35] = Half life in Beagle dog at 3 mg/kg, po; format: ADME, organism-based, Canis lupus familiaris; design: dose 3 mg/kg, route oral; settings: in vivo
[36] = biological target: Serotonin 3 receptor (5HT3) (Mus musculus, UniProt Q9JHJ5+P23979); experiment: Binding affinity to mouse 5HT3 receptor by radioligand binding assay; format: protein assay

SMILES: CC(=O)Nc1cccc(N2CCN(CCCCNS(=O)(=O)CC3CCCCC3)CC2)c1 [NALUZOTAN]
- half-life [1]: 2 h
- Ki (Nociceptin receptor): > 2000 nM
- Activity (Mus musculus): Active
- Cmax [2]: 24 ng/mL
- Ki [3]: 5.1 nM
- Ki [4]: > 2000 nM
- Ki [5]: > 10000 nM
- half-life at 5 µM [6]: 1.08 h
- Ki [7]: > 2000 nM
- half-life [8]: > 10 h
- Ki [9]: > 2000 nM
- Ki (D(2) dopamine receptor): > 2000 nM
- Ki [10]: > 2000 nM
- MTD [11]: 600 mg/kg
- Ki [12]: > 2000 nM
- Ki (Angiotensin II receptor): > 2000 nM
- half-life at 5 µM [13]: 0.467 h
- fraction unbound at 2 µM [14]: 0.08
- Ki [15]: 700 nM
- Ki [16]: > 5000 nM
- inhibition at 1 µM (hERG (KCNH2)): 21%
- Ki [17]: > 2000 nM
- Ki [18]: > 2000 nM
- Ki [19]: > 2000 nM
- Ki [20]: > 2000 nM
- Ki [21]: > 2000 nM
- Inhibition (Cytochrome P450 2C9): Not Active
- Ki [22]: > 2000 nM
- Inhibition (Cytochrome P450 1A2): Not Active
- Ki [23]: > 2000 nM
- Ki [24]: > 2000 nM
- Ki [25]: > 5000 nM
- EC50 [26]: 20 nM
- Inhibition (Cytochrome P450 2C19): Not Active
- IC50 [27]: 3800 nM
- Ki [28]: > 2000 nM
- Ki (Somatostatin receptor): > 2000 nM
- Ki (Translocator protein): > 2000 nM
- Ki (Adrenergic receptor beta): > 2000 nM
- Ki [29]: > 2000 nM
- Activity (Homo sapiens): Active
- Ki [30]: > 2000 nM
- Ki [31]: > 5000 nM
- Kp at 1 h [32]: 0.5
- Ki (Cholecystokinin receptor): > 2000 nM
- bioavailability [33]: 11%
- Ki [34]: > 2000 nM
- half-life [35]: 1.1 h
- Ki [36]: > 5000 nM
